In data set [1] the target is Cyclin-dependent kinase 2/cyclin E1 (Homo sapiens, UniProt P24941). As to the kind of experiment: Inhibition of CDK2/cyclin E. The class given is protein-complex assay.
Data set [2] addresses Cyclin-dependent kinase 1/cyclin B1 (Homo sapiens, UniProt P06493). Nature of the data set: Inhibition of CDK1/cyclin B after 40 mins by liquid scintillation counting. It counts as protein-complex assay.
Data set [3] in a line: Cell cycle arrest in rat RK3E cells expressing k-ras assessed as accumulation at S phase at 2.5 uM after 24 hrs using propidium iodide stain by flow cytometry. The class given is functional, cell-based. (In general: In flow cytometry, cells or beads pass a laser one at a time.)
Data set [4] can be described thus: Cell cycle arrest in rat RK3E cells expressing k-ras assessed as accumulation at G2/M phase at 2.5 uM after 24 hrs using propidium iodide stain by flow cytometry. It counts as functional, cell-based.
A short description of data set [5]: Aqueous solubility of compound in water. It counts as physicochemical. As to conditions: buffer.
Data set [6] is described as follows: Solubility of compound in 2 equimolar NaOH and distilled water. It counts as physicochemical. The settings on record: buffer.
A short description of data set [7]: Solubility of compound in 3 equimolar NaOH and distilled water. It counts as physicochemical. The settings on record: buffer.
The nature of data set [8]: Solubility of compound in 3 equimolar NaOH and 0.1 N NaHCO3 buffer. The class given is physicochemical.
Data set [9] concerns the target Cyclin-dependent kinase 2/cyclin E1 (Homo sapiens) (UniProt P24864+P24941). As to the kind of experiment: Inhibition of CDK2/cyclin E as percent residual activity. The class given is protein-complex assay. Details: Residual activity / inhibition: concentration or dose not given beside the values.
For data set [10], the target named is Cyclin-dependent kinase 1/cyclin B1 (Homo sapiens) (UniProt P06493+P14635). Nature of the data set: Inhibition of CDK1/cyclin B at 1 uM after 40 mins by lequid scintillation counting. It counts as protein-complex assay.
Cyclin-dependent kinase 1/cyclin B1 (Homo sapiens), sequence (P06493 whole entry, looked up): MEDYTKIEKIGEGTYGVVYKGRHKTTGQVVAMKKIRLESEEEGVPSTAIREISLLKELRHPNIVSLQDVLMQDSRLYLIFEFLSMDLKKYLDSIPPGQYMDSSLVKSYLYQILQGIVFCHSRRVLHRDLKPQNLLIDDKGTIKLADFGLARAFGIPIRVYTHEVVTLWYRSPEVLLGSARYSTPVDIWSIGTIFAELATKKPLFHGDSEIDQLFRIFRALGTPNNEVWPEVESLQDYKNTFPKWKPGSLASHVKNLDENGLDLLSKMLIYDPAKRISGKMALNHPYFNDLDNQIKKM
Cyclin-dependent kinase 1/cyclin B1 (Homo sapiens), sequence (P14635 whole entry, looked up): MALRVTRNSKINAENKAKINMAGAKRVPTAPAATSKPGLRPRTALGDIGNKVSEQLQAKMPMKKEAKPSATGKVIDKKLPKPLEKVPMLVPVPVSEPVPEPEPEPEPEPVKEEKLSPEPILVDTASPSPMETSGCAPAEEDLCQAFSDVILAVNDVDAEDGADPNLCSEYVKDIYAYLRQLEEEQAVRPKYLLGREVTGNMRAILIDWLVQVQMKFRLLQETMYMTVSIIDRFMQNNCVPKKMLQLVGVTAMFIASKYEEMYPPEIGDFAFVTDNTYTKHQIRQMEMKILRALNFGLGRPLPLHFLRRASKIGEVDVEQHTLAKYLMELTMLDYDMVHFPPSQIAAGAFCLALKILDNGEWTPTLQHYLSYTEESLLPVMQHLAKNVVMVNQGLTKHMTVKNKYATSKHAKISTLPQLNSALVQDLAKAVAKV
Data set [11] deals with Inhibitor of nuclear factor kappa-B kinase subunit beta (Homo sapiens, UniProt O14920). As to the kind of experiment: Inhibition of recombinant IKK-beta preincubated for 15 mins by HTRF assay. In general terms: Time-resolved FRET reads energy transfer from a long-lived donor to a nearby acceptor.
Inhibitor of nuclear factor kappa-B kinase subunit beta, sequence (O14920 whole entry): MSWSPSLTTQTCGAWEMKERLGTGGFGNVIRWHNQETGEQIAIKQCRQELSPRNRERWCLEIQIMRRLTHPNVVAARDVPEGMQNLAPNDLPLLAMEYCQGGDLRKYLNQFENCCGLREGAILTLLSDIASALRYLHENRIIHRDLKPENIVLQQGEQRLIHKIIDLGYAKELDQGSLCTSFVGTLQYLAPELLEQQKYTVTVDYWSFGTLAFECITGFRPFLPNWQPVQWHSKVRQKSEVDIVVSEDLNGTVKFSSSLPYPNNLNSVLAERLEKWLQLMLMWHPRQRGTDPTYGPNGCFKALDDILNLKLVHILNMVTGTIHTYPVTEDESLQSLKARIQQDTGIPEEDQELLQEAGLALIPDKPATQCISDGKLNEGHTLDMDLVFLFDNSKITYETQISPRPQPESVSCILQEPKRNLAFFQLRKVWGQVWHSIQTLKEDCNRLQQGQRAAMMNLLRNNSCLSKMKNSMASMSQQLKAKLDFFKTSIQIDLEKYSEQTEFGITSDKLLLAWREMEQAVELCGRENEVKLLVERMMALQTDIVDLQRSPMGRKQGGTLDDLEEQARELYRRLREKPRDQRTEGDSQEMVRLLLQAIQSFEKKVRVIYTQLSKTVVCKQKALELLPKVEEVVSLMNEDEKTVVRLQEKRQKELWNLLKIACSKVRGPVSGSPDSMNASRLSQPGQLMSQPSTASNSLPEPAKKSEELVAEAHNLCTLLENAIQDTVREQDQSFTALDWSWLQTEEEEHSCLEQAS
Data set [12] concerns the target T1, High affinity nerve growth factor receptor (Homo sapiens, UniProt P04629). Nature of the data set: Inhibition of recombinant TrKa preincubated for 15 mins by HTRF assay.
Target sequence in this assay (P04629 whole entry): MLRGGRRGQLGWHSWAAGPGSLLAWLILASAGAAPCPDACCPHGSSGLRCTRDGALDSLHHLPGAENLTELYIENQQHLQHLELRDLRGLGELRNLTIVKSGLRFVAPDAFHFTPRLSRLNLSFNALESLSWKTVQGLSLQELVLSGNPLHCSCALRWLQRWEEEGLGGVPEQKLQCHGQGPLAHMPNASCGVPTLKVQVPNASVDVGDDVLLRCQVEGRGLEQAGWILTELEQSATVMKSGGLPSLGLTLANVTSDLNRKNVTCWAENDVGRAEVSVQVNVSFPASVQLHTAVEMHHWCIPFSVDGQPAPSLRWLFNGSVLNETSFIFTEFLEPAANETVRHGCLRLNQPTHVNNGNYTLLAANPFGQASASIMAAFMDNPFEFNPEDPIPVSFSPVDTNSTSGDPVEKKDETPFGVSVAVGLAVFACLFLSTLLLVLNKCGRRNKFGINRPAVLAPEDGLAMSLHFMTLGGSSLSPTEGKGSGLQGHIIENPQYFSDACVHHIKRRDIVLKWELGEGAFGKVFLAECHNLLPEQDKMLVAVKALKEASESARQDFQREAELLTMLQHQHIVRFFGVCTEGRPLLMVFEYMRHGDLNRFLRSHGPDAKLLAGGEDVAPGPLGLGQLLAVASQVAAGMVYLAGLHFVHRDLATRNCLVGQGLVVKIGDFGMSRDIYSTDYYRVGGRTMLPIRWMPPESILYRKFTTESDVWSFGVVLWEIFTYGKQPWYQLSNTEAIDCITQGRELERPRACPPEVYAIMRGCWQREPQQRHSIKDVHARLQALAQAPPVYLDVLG
Data set [13] addresses T1, High affinity nerve growth factor receptor. Nature of the data set: Inhibition of recombinant TrKa at 1 uM preincubated for 15 mins by HTRF assay.
Target sequence in this assay (P04629 33-796 limits assumed): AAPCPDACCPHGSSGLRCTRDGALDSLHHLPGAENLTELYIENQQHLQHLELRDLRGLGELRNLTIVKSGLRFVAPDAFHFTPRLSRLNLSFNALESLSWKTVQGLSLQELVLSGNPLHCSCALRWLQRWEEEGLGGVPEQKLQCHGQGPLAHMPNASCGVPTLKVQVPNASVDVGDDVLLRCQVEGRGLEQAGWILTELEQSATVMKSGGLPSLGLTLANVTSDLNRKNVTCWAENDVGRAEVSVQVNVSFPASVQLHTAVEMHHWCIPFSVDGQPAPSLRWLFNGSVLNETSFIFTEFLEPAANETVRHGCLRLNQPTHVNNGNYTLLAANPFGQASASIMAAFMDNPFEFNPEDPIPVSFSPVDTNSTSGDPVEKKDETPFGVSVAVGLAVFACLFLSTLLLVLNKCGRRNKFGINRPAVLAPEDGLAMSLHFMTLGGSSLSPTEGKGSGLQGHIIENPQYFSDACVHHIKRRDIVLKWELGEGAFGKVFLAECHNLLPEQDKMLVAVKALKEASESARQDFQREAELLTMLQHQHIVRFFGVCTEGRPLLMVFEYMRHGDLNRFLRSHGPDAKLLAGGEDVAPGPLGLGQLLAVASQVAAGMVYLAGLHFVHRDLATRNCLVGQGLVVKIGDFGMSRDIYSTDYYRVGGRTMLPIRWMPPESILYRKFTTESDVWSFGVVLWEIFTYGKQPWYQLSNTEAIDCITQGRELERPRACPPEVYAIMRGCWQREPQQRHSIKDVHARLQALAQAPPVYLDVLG
For the next data set, the system named is KB. As to the kind of experiment: Antiproliferative activity against human KB cells after 3 days by SRB assay. It counts as functional, cell-based. As to conditions: 72 h. In general terms: The SRB assay estimates cell density from bound dye.
The next data set has as its system MCF7. As to the kind of experiment: Antiproliferative activity against human MCF7 cells after 3 days by SRB assay. The settings on record: MCF7, 72 h. It counts as functional, cell-based.
Data set [14] deals with RK3E. Nature of the data set: Antitumor activity against rat RK3E cells expressing k-ras and GFP/Luc genes transplanted in Sprague-Dawley rat assessed as decrease of PCNA expression at 5 mg/kg, iv administered 5 days after tumor implantation for 5 times measured after 11 days by immunohistochemical staining relative to control. The class given is functional, organism-based. Details: dose 5 mg/kg.

Data set [15] can be described thus: Antitumor activity against rat RK3E cells expressing k-ras and GFP/Luc genes transplanted in Sprague-Dawley rat assessed as decrease in tumor volume at 5 mg/kg, iv administered 5 days after tumor implantation for 5 times measured after 48 hrs post dose relative to control. The class given is functional. Details: scale not given: the % may be the effect or the level left.

Data set [16] relates to RK3E. Nature of the data set: Antitumor activity against rat RK3E cells expressing k-ras and GFP/Luc genes transplanted in Sprague-Dawley rat assessed as increase in apoptotic cells at 5 mg/kg, iv administered 5 days after tumor implantation for 5 times measured after 11 days by TUNEL assay relative to control. Details: dose 5 mg/kg. The class given is functional, organism-based.

A further data set relates to Rattus norvegicus. As to the kind of experiment: Toxicity in rat RK3E cells expressing k-ras and GFP/Luc genes transplanted in Sprague-Dawley rat assessed as change in body weight at 5 mg/kg, iv administered 5 days after tumor implantation for 5 times measured after 48 hrs post dose. It counts as organism-based. Further details: dose 5 mg/kg, route intravenous. The settings on record: in vivo.

In data set [17] the test system is RK3E. Nature of the data set: Antitumor activity against rat RK3E cells expressing k-ras and GFP/Luc genes transplanted in Sprague-Dawley rat assessed as decrease of tumor growth at 5 mg/kg, iv administered 5 days after tumor implantation for 5 times measured on day 10 by luciferin bioluminescence assay. It counts as functional, organism-based. Further details: dose 5 mg/kg.

Data set [18] in a line: Cell cycle arrest in rat RK3E cells expressing k-ras assessed as accumulation at sub G0 phase at 1 uM after 24 hrs using propidium iodide stain by flow cytometry. The class given is functional, cell-based.
The nature of data set [19]: Cell cycle arrest in rat RK3E cells expressing k-ras assessed as accumulation at G0/G1 phase at 1 uM after 24 hrs using propidium iodide stain by flow cytometry. The class given is functional, cell-based.
Data set [20] is described as follows: Cell cycle arrest in rat RK3E cells expressing k-ras assessed as accumulation at S phase at 1 uM after 24 hrs using propidium iodide stain by flow cytometry. The class given is functional, cell-based.
Data set [21] is described as follows: Cell cycle arrest in rat RK3E cells expressing k-ras assessed as accumulation at G2/M phase at 1 uM after 24 hrs using propidium iodide stain by flow cytometry. It counts as functional, cell-based.
A short description of data set [22]: Cell cycle arrest in rat RK3E cells expressing k-ras assessed as accumulation at sub G0 phase at 2.5 uM after 24 hrs using propidium iodide stain by flow cytometry. It counts as functional, cell-based.
Data set [23] is described as follows: Cell cycle arrest in rat RK3E cells expressing k-ras assessed as accumulation at G0/G1 phase at 2.5 uM after 24 hrs using propidium iodide stain by flow cytometry. The class given is functional, cell-based.
Data set [24] concerns Hepatocyte growth factor receptor (Homo sapiens), P08581 [M1250T]. As to the kind of experiment: Inhibition of recombinant Met M1250T mutant at 10 uM preincubated for 15 mins by HTRF assay.
Data set [25] is described as follows: Selectivity ratio for CDK2/cyclinE over CDK1/cyclin B.
Data set [26] concerns the target Hepatocyte growth factor receptor (Homo sapiens) (UniProt P08581). Nature of the data set: Inhibition of recombinant c-met at 10 uM preincubated for 15 mins by HTRF assay.
For data set [27], the target named is Macrophage-stimulating protein receptor (Homo sapiens) (UniProt Q04912). Nature of the data set: Inhibition of recombinant Ron at 10 uM preincubated for 15 mins by HTRF assay.
For data set [28], the target named is Vascular endothelial growth factor receptor 2 (Homo sapiens) (UniProt P35968). As to the kind of experiment: Inhibition of recombinant VEGFR2 at 10 uM preincubated for 15 mins by HTRF assay.
The target in data set [29] is Epidermal growth factor receptor (Homo sapiens) (UniProt P00533). Nature of the data set: Inhibition of recombinant EGFR at 10 uM preincubated for 15 mins by HTRF assay.
The target in data set [30] is Phosphatidylinositol 4,5-bisphosphate 3-kinase catalytic subunit gamma isoform (Homo sapiens) (UniProt P48736). As to the kind of experiment: Inhibition of human PI3Kgamma at 10 uM preincubated for 15 mins by HTRF assay.
The target of data set [31] is Insulin receptor (Homo sapiens) (UniProt P06213). As to the kind of experiment: Inhibition of insulin receptor at 10 uM preincubated for 15 mins by HTRF assay.
Insulin receptor (Homo sapiens), sequence (P06213 28-758 limits assumed): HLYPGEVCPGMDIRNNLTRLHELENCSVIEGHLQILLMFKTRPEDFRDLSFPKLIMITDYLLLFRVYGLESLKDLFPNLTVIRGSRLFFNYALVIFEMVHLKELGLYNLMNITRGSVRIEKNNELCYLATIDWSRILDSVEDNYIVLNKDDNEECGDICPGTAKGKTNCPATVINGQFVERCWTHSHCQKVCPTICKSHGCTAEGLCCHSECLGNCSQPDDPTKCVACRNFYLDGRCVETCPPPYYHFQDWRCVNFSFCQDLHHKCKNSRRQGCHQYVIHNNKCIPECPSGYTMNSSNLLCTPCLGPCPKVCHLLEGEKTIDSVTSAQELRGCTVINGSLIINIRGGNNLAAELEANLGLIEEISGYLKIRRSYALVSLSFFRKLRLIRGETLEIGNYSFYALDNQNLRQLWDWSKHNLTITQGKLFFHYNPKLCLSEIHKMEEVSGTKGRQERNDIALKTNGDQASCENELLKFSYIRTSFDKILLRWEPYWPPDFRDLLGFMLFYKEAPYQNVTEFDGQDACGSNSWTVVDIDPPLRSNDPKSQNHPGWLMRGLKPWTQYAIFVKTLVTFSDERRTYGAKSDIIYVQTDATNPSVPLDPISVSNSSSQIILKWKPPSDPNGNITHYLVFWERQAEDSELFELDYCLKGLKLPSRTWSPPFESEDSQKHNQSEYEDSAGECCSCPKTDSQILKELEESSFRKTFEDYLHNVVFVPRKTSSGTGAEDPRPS
Insulin receptor (Homo sapiens), sequence (P06213 763-1382 limits assumed): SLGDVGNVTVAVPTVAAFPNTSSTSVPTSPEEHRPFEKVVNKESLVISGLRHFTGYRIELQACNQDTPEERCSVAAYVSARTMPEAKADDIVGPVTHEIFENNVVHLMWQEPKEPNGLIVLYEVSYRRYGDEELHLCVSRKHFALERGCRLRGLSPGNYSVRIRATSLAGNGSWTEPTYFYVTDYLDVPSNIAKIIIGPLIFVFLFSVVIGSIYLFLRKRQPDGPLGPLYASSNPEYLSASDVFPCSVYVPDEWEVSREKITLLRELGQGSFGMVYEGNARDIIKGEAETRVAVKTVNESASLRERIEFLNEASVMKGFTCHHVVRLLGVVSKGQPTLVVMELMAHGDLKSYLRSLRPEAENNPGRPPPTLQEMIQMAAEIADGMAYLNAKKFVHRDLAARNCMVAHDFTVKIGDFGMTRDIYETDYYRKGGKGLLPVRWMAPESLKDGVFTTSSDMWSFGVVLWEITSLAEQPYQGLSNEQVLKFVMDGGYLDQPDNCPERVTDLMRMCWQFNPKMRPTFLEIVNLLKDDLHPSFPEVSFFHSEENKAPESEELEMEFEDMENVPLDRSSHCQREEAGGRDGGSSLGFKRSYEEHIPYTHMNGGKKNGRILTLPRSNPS
Data set [32] concerns the target Aurora kinase A (Homo sapiens) (UniProt O14965). Nature of the data set: Inhibition of recombinant auroraA at 10 uM preincubated for 15 mins by HTRF assay.
For data set [33], the target named is Inhibitor of nuclear factor kappa-B kinase subunit beta (Homo sapiens) (UniProt O14920). Nature of the data set: Inhibition of recombinant IKK-beta at 10 uM preincubated for 15 mins by HTRF assay.
Inhibitor of nuclear factor kappa-B kinase subunit beta (Homo sapiens), sequence (O14920 whole entry): as the sequence (O14920 whole entry) above
The target of data set [34] is T1, High affinity nerve growth factor receptor. Nature of the data set: Inhibition of recombinant TrKa at 10 uM preincubated for 15 mins by HTRF assay.
Target sequence in this assay (P04629 33-796 limits assumed): as the sequence (P04629 33-796 limits assumed) above
For the next data set, the system named is A549. As to the kind of experiment: Antiproliferative activity against human A549 cells after 3 days by SRB assay. It counts as functional, cell-based. The settings on record: A549, 72 h.
In a further data set the test system is HT-1080. As to the kind of experiment: Antiproliferative activity against human HT1080 cells after 3 days by SRB assay. It counts as functional, cell-based. As to conditions: HT-1080, 72 h.
A short description of data set [35]: Antiproliferative activity against human […] cells after 3 days by SRB assay. The settings on record: 72 h. The class given is functional, cell-based.
Another data set has as its system K562. As to the kind of experiment: Antiproliferative activity against human K562 cells after 3 days by SRB assay. As to conditions: K562, 72 h. The class given is functional, cell-based.
A further data set concerns SNU-638. Nature of the data set: Antiproliferative activity against human SNU638 cells after 3 days by SRB assay. The class given is functional, cell-based. As to conditions: SNU-638, 72 h.

≈ marks a conversion by molar mass, not a printed value. Calls of active or inactive are those of the source. No cut-off for these calls is given here.

This note sets out measurements from ChEMBL document CHEMBL1157914, “5,5'-substituted indirubin-3'-oxime derivatives as potent cyclin-dependent kinase inhibitors with anticancer activity” (J Med Chem, 2010).

Aurora kinase A (Homo sapiens), sequence (O14965 whole entry): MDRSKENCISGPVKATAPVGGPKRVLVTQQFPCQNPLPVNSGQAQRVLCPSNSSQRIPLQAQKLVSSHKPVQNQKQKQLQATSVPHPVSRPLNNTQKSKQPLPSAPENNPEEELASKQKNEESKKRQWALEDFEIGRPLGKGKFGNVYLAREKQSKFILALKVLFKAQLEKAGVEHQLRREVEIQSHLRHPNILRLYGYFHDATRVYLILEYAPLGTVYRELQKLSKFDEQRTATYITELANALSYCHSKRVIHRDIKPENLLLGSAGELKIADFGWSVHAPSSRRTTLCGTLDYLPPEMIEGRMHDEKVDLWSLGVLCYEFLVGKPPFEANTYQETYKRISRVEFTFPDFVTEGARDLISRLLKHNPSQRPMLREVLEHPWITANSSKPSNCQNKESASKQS

The IC50 is the concentration at which inhibition is half-maximal. Broadly, the solubility is the concentration that dissolves in the medium under given conditions. As a reminder, the inhibition is the percentage by which the read-out fell short of the control. For `O=C1Nc2ccc([N+](=O)[O-])cc2/C1=C1/Nc2ccc(O)cc2/C1=N/O`, the concentration for half-maximal inhibition (IC50) was 0.00191 µM in data set [1]; 0.013 µM in data set [2]; 10 µM in [11]; 4 µM in data set [12]; 1.33 µM in the data set with KB; 1.21 µM in the data set with MCF7. Also, the Activity in data set [3] was 9.66%; in data set [4], 5.67%; in data set [15], 84.3%; in the data set with Rattus norvegicus, “Non-toxic”; in data set [18], 8.16%; in data set [19], 57.7%. The Activity in data set [20] was determined as 7.96%; in data set [21], 8.16%; in data set [22], 5.59%; in data set [23], 74.5%. The solubility in data set [5] came to 10 µg/mL (≈ 0.0296 mM); in data set [6], 2700 µg/mL (≈ 7.98 mM); in [7], 3000 µg/mL (≈ 8.87 mM); in data set [8], 200 µg/mL (≈ 0.591 mM). The compound further had a Residual activity in data set [9] of 90%. In addition, the inhibition entry in [10] was “Active”. In addition, the inhibition in [13] was determined as 9%. Also, the result in the data set with RK3E [14], in the data set on RK3E [16] and in the data set with RK3E [17] was Active.

In the case of `O=C1Nc2ccc([N+](=O)[O-])cc2/C1=C1/Nc2ccc(Cl)cc2/C1=N/O`, the concentration for half-maximal inhibition (IC50) in data set [1] was 0.0235 µM; in the data set on A549, 15.6 µM; in the data set with HT-1080, 1.25 µM; in data set [35], 0.33 µM; with K562, 0.56 µM; in the data set on SNU-638, 1.16 µM. Further, the half-maximal inhibitory concentration (IC50) in the data set on KB came out at 1.11 µM; in the data set with MCF7, 0.51 µM. The inhibition entry in data set [24], in [26], in data set [27], in data set [28], in data set [29] and in [30] was “inactive” throughout. Further, the inhibition result in data set [31], in data set [32], in data set [33] and in data set [34] was “inactive” throughout. Also, the Residual activity in [9] is 90%. Besides, in data set [25], the Selectivity ratio turned out to be 8.
